Laboratory results taken from a melting point compilation (Tetko et al.; mined from patent text by program, amines drawn as free bases though some values may be those of a salt).

SMILES | melting point
CCOCc1nc2c(N)nc3cc(N4CCOC4=O)cnc3c2n1CC(C)C | 174 to 176 °C
C=C=CC12CCC(=O)C=C1C=CC1C3CCC(=O)C3(C)CCC12 (stereo not drawn) | 152 to 154 °C
CN(CCO)C(=O)Nc1ccc2c(c1)C(c1ccccc1F)=NCC(=O)N2C | 196 to 198 °C
NC(=O)CNC(=O)CN1CC(O)CC1=O (stereo not drawn) | 158 to 160 °C
O=c1[nH]c2c(Cl)cccc2c(=O)n1CCCN1CC=C(c2cccc(C(F)(F)F)c2)CC1 | 205 to 210 °C
FC(F)(F)c1ccc(I)c(I)c1 | 62 to 64 °C
CC1(C)CC(OC(=O)CCl)CC(C)(C)N1OC1CCCCC1 | 62 to 64 °C
Cc1nc(-c2ccc3c(c2)OCO3)c2cc3c(cc2n1)OCO3 | 207 to 210 °C
O=c1oc(-c2ccc(F)cc2)nc2cccc(Cl)c12 | 159 to 162 °C
CS(=O)(=O)Nc1ccccc1OCCCN1CCC(OC(c2ccccc2)c2ccsc2)CC1 (stereo not drawn) | 79.5 to 82 °C
Clc1ncc(OCc2ccsc2)cn1 | 73 to 76 °C
CN1CC2c3cccn3Cc3ccccc3N2C(=O)C1=O (stereo not drawn) | 178 to 179 °C
O=C1c2cc(Cl)ccc2Cc2cccc(Cl)c21 | 160 to 165 °C
Cc1nc(Cl)c([N+](=O)[O-])c(NCCOCCNC(=O)OC(C)(C)C)c1C | 70 to 73 °C
O=[N+]([O-])c1ccc(-c2ccc([N+](=O)[O-])c(Cl)c2)cc1Cl | 221 to 222 °C
C=CCC1(C(O)C(c2cccc(Cl)c2)n2ccnc2)CC2C=CC1C2 (stereo not drawn) | 134 to 135 °C
C=CC(=O)N(C)CCCCCCCCCCCOc1ccc(C(=O)O)c(C(=O)O)c1 | 95 °C
COc1cccc(-n2nc(-c3ccccc3)c3cccnc32)c1 | 102 to 105 °C
Cn1cncc1-c1cnc(-c2ccccc2)nc1 | 144 °C

SMILES | melting point
O=C1c2ccccc2C(=O)c2oc(-c3ccccc3)nc21 | > 260 °C
Clc1ccc(CC2(c3ccccc3)OCC(CN3CCCCC3)O2)cc1 (stereo not drawn) | 58 °C
CC(C)(C)NC(=O)CCCCl | 62.5 to 64 °C
Cc1cc(C)c2c(O)c3c(=O)[nH][nH]c(=O)c3nc2c1 | > 395 °C
CN1C(=O)[C@H](NC(=O)CCC2CCCCC2)N=C(c2ccccc2)c2ccccc21 | 144 to 146 °C
[N-]=[N+]=NC1(c2nc(N)nc(N)n2)C=CC(c2ccccc2)=CC1 (stereo not drawn) | 230 °C
O=CC=Cc1c(C2CC2)nc2ccccc2c1-c1ccc(F)cc1 | 146 to 147 °C
CCCCCCCC(=O)SSC(=O)CCCCCCC | 36 to 38 °C
O=C1CCC(N2C(=O)c3cccc(OCc4cc5ccccc5o4)c3C2=O)C(=O)N1 (stereo not drawn) | 234 to 236 °C
CC(C(=O)c1ccccc1)N1CCN(c2nc3nccc(-c4ccncc4)n3n2)CC1 (stereo not drawn) | 142 to 144 °C
Cc1nc(C(=O)NN)c2n1-c1ccc(Cl)cc1C(c1ccccc1)NC2 (stereo not drawn) | 225 to 230 °C
c1ccc2nc(N3CCNCC3)c(OCCOc3cncnc3)nc2c1 | 115 to 117 °C
Cn1c(-c2ccccc2F)c2ccsc2nc1=O | 191 to 192 °C
O=c1c2ccccc2nc(-c2cc(-c3ccncc3)c(N3CCOCC3)s2)n1-c1ccc(Cl)cc1 | 195 to 197 °C
Clc1ccc(OCc2nc3c(OCc4ccccc4)cccc3n2CCCC2CCN(CCCN3CCCCC3)CC2)cc1 | 58 to 60 °C
O=C1C(=O)c2ccc(-c3cccc(C(F)(F)F)c3)cc2C2=C1SCC1(CCNCC1)O2 | 199 to 203 °C
Cc1nnc2n1-c1sc(Cl)cc1C(c1ccccc1F)=NC2 | 187 to 189 °C
COc1ccc(Nc2nc(N3CCOCC3)nc(-n3c(C(F)F)nc4c(OC)cccc43)n2)nn1 | 256 to 259 °C
COc1ccc2c(Cc3c(Cl)cncc3Cl)nncc2c1C=Cc1ccccc1 | 180 to 182 °C

Next, values leading:

melting point | SMILES
158 to 160 °C | N#CCc1c(-c2ccccc2)sc2ccc(Cl)cc12
148 to 151 °C | COc1cc(OC)nc(OC(C(=O)O)C2c3ccccc3CC2C)n1 (stereo not drawn)
149 to 153 °C | CCOC(=O)c1c(N2CCCC2)c2cnc(-c3ccccc3)nc2n(CC)c1=O
138 °C | C=Cc1ccc2c(c1CCC(=O)OC)CCC(NS(=O)(=O)c1ccc(Cl)cc1)C2 (stereo not drawn)
223 °C | O=C(Nc1ccc2c(c1)OCCO2)c1ccc2cc(Br)ccc2c1
179 to 180 °C | CCOC(=O)N1CCC(n2cnc3ccc(-c4nnc(C)o4)cc32)CC1
69 to 72 °C | Nc1cccc2cccc(S)c12
201 to 204 °C | O=C(Nc1cc[nH]n1)c1c(F)cccc1F
215 °C | COc1ccc2c(c1)CCC1(C)CC(=O)NN=C21 (stereo not drawn)
88 to 90 °C | COC(=O)C(C#N)CC(=S)c1ccc(C)cc1 (stereo not drawn)
135 to 138 °C | O=C(c1ccccc1)N1CCN(Cc2ccccc2)CCN1C(=O)c1ccccc1
110 to 112 °C | O=[N+]([O-])c1ccc2sc(CCl)cc2c1
90 to 92 °C | COC(=O)C=C(C)c1ccc(-c2ccc(F)cc2F)cc1
108 to 110 °C | COc1cccc(-c2c(/C=C/C(=O)NCCCCc3cccnc3)ccc3ccc(OC)cc23)c1
238 to 239 °C | COc1cccc(NC(=O)NC2N=C(C)c3ccccc3N(CC(=O)N(C)c3ccccc3)C2=O)c1 (stereo not drawn)
205 to 206 °C | CC1(C)OCCC(=NO)c2ccccc2NC1=O
171 to 177 °C | CN(Cc1sc2c(=O)c(C(=O)NCc3ccc(Cl)cc3)cn(C)c2c1CNS(C)(=O)=O)C[C@@H](O)c1ccccn1
197 to 199 °C | CCOC(=O)c1ccc(C(=O)Nc2ccc3c(c2)C(C)(C)CC(=O)N3C)cc1

melting point | SMILES
219 to 220 °C | CC(C)(C)C(NC(=O)CCc1ccccc1)Nc1c(Nc2cccnc2)c(=O)c1=O (stereo not drawn)
225 °C | Nc1cc(=O)n(Cc2c(Cl)cccc2Cl)[nH]1
185 to 188 °C | Cc1ccsc1C(=O)Nc1ccc(-n2nc(C(F)(F)F)cc2C(F)(F)F)cc1
199 to 201 °C | COc1ccc(C(=O)c2ccc(OCc3nc(-c4ccccc4)oc3C)cc2)c(OC2(C(=O)O)CCC2)c1
101 to 103 °C | OCCCCCCCCOc1ccc(-c2ccccc2)cc1
101 to 102 °C | COC(=O)c1nc2ccccc2o1
214 °C | O=C(O)CNC(=O)N1CCc2cc(S(=O)(=O)N3CCN(c4cccc(Cl)c4)CC3)ccc21
177 to 178 °C | CONC(=O)Cc1ccccc1Nc1c(Cl)cccc1Cl
138 to 139 °C | CC(C)Cn1c(CNC(=O)OC(C)(C)C)c(-c2ccccc2F)c2cc(OCc3ccccc3)ccc2c1=O
265 °C | O=C1Cc2cc(NC(=O)c3ccccc3[N+](=O)[O-])ccc2N1
147 to 148 °C | CSc1ccc(COc2cccc(C(=O)Nc3ccc(C#N)cc3)c2)cc1
130 to 131 °C | CCOC(=O)C(C#N)=Cc1c(Cl)n(Cc2ccccc2)c2ccccc12
149 °C | Cc1c(Cl)cc(NC(=O)CCl)c(O)c1Cl
97 to 99 °C | CC(=O)N(O)Cc1ccc(Oc2ccccn2)cc1
98 °C | COC(OC)c1ccc(C=C2C(=O)C3(C)CCC2C3(C)C)cc1 (stereo not drawn)
64 to 65 °C | CC(=Cc1ccccc1)c1ccc2c(c1)C(C)(C)CCO2
171 to 172 °C | CCOC(=O)c1ccc(N=C(Nc2ccc(C(=O)OCC)cc2)c2ccc(Cl)cc2)cc1
